# Source: PubChem BioAssay AID1645866 (Buhrlage Lab, Dana-Farber Cancer Institute and Novartis …, 2021)
# Calls of active or inactive are those of the source.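 The calls were made as follows: active = in confirmatory dose-response testing, peak deubiquitinase inhibition of 30% or more; inactive = the rest.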
# Molecular target: Ubiquitin carboxyl-terminal hydrolase 28 (Homo sapiens) (UniProt Q96RU2)
# Assay: Ubiquitin-specific peptidase 28 DUB inhibitors, biochemical concentration-dependence assay, validation of primary screening hits (AID 1645866)
# Settings: purified USP28, ubiquitin-rhodamine fluorescence, 30 min
# Sequence of Ubiquitin carboxyl-terminal hydrolase 28 (Homo sapiens) (Q96RU2 whole entry, looked up): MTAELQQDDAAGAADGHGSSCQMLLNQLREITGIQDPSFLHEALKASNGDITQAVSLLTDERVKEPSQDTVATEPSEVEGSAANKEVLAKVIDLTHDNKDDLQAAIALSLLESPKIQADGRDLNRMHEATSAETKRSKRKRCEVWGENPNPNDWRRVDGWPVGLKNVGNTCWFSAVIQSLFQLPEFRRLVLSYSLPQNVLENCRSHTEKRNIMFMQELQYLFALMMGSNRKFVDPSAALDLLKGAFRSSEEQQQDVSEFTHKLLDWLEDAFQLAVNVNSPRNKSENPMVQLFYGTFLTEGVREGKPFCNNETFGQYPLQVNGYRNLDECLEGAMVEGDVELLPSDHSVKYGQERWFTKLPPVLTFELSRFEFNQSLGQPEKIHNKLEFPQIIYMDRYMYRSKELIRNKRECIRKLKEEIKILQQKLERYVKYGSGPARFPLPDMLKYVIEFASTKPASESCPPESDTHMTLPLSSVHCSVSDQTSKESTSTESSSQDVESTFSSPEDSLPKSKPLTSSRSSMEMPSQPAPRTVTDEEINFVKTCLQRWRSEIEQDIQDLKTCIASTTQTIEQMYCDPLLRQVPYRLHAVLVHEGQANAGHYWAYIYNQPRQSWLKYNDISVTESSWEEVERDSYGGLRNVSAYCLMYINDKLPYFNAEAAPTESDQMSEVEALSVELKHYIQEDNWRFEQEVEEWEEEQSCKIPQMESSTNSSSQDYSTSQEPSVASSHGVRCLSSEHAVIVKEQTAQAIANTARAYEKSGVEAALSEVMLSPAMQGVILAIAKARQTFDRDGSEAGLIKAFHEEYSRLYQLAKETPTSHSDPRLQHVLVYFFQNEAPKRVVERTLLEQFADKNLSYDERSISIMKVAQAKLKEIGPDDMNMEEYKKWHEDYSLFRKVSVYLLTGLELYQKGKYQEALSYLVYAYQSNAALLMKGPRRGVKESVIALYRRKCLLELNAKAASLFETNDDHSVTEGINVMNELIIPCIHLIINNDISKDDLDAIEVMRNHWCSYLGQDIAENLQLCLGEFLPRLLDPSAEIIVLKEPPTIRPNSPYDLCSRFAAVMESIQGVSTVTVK
row,SMILES,IC50
1,Cc1cccc(CNC(=O)c2ccc(-c3nnc(-c4cccc(C)c4)o3)cc2)c1,17.7 µM
2,COc1ccc(CCNC(=O)c2noc3c2CCc2sccc2-3)cc1OC,0.655 µM
3,COc1cc(C2SCC(=O)Nc3c2c(-c2ccccc2)nn3-c2ccccc2)cc(OC)c1OC (stereo unspecified),3.37 µM
4,CCOc1ccccc1NC(=O)COC(=O)C(c1ccccc1)c1ccccc1,> 50 µM (inactive)
5,C=C1CCC2[C@](C)(CCC[C@]2(C)C(=O)OC)[C@H]1CCc1ccoc1CNC(C)C (stereo partly specified),> 50 µM (inactive)
6,COCCCNC(=O)c1ccc(Cn2c(=O)c3ccccc3n(CC(=O)Nc3ccc(OC)cc3)c2=O)cc1,20.1 µM
7,COc1ccc(C2CC(c3ccccc3)N(C(=O)C3CC3)c3ncnn32)cc1 (stereo unspecified),> 50 µM (inactive)
8,FC(F)(F)c1ccccc1CCN1CCc2nc3ccc(Cl)cc3cc2C1,> 50 µM (inactive)
9,NS(=O)(=O)c1ccc(CNS(=O)(=O)c2ccc(-c3ccccn3)s2)cc1,19.9 µM
10,O=C1CC(c2ccco2)Cc2[nH]c(=O)c(C(=O)Nc3ccc(Cl)cc3)cc21 (stereo unspecified),3.08 µM
11,Cc1cccc(NC(=O)Nc2nnc(CC(=O)NCc3ccccc3)s2)c1,11.3 µM
12,Cn1cc2cccc(NC(=O)c3ccc(F)cc3)c2n1,> 50 µM (inactive)
13,Cc1cc(NC(=O)Cn2c(=O)n(CCCCC(=O)NCc3ccco3)c(=O)c3ccccc32)ccc1Br,2.36 µM
14,COc1ccc(CCn2cnc3c([nH]c4ccccc43)c2=O)cc1,12.5 µM
15,CC(C)c1ccc(NC(=O)c2cc3ncc(Br)cn3n2)cc1,5.14 µM
16,COc1ccc(CCNC(=O)CSc2cn(CCNC(=O)c3ccc(F)cc3)c3ccccc23)cc1OC,28.1 µM
17,COc1ccc(NC(=O)c2nnn(-c3ccccc3C)c2C)cc1OC,4.78 µM
18,COc1ccc(NC(=O)C2Oc3ccc(C)cc3NC2=O)cc1Cl (stereo unspecified),19.5 µM
19,CC(C)=CCC/C(C)=C/Cc1c(O)cc2c(c1O)C(=O)OC2,2.33 µM
20,COc1ccc(C(=O)N2CCCC3(C2)Nc2cccnc2NC3=NC2CCCC2)cn1 (stereo unspecified),> 50 µM (inactive)
21,O=C1c2ccccc2NC2(C(=O)Nc3ccc(Br)cc32)N1c1ccccc1 (stereo unspecified),3.31 µM

row,SMILES,IC50
1,O=C(Nc1ccc(Oc2cccc3cccnc23)cc1)c1cccs1,0.531 µM
2,COc1ccc(NC(=O)CN2CCN(c3ccc(C(C)=O)cc3)CC2)cc1S(=O)(=O)N1CCCCC1,40.4 µM
3,COc1ccc(NC(=O)c2ccccc2OCC(=O)Nc2ccccc2C(F)(F)F)c(C)c1,23.4 µM
4,O=C(Nc1ccc2c(c1)OCCO2)c1ccc(N2CCCC2=O)cc1,7.18 µM
5,NC(=O)Cn1c(=O)n(Cc2ccc(C(=O)NC3CCCC3)cc2)c(=O)c2ccccc21,> 50 µM (inactive)
6,Cc1cccc(NC(=O)Cn2c(=O)n(Cc3ccc(F)cc3)c(=O)c3sccc32)c1,7 µM
7,CCCCc1nc2sc3c(SCC(=O)Nc4cccc(C)c4)ncnc3c2c2c1CCC2,14 µM
8,CC(C)(C)c1ccc(C(=O)Nc2ccc(Cn3cncn3)cc2)cc1,28 µM
9,c1csc(CCN2CCc3nc4cccnc4cc3C2)c1,> 50 µM (inactive)
10,COc1ccc(Cn2cnc3c([nH]c4ccc(Br)cc43)c2=O)cc1,1.72 µM
11,COc1ccc(-n2ccn3c(CCC(=O)NCc4ccc(F)cc4)nnc3c2=O)cc1,25.3 µM
12,COc1ccc(-c2cc3nc([C@H](C)NC(=O)Cc4cccc(F)c4)nn3cn2)cc1,13 µM
13,CC(=O)c1ccc(N2C(=O)N(Cc3cccc([N+](=O)[O-])c3)c3ccccc3S2(=O)=O)cc1,> 50 µM (inactive)
14,Cc1ccc(-c2c(C(=O)Nc3ccc(S(N)(=O)=O)cc3)oc(=O)c3ccccc23)cc1,30.5 µM
15,O=C(Nc1ccccc1-c1nc2ccccc2[nH]1)c1sc2ccccc2c1Cl,2.04 µM
16,COc1ccc(CC(=O)NCc2ccc3[nH]c(C)cc3c2)cc1,> 50 µM (inactive)
17,CCCC(=O)Nc1ccc(SCc2nnc(-c3ccccc3)o2)cc1,12.7 µM
18,O=C(NC1CCCCC1)c1cc2c(cn1)[nH]c1ccccc12,2.51 µM
19,Cc1cc(C)c2c(-n3cccc3)c(C(=O)NCCc3ccc(S(N)(=O)=O)cc3)sc2n1,2.55 µM
20,CCOc1cccc(NC(=O)c2ccc(S(=O)(=O)N3CCc4ccccc4C3)cc2)c1,44.3 µM
